# Results as given in patent US4495186A, “Organometal complexes of N-cyclohexyl-piperazino acetamides or propionamides, preparation and use thereof as antiulcer-antisecretive-buffering drugs” (Camillo Corvi S.p.A., priority 1982, dated 1985).
# Tests used:
# [1] = from U.S. Pat. No. 4,123,530; cited from earlier work
# [2] = tested on: Reserpine experimental ulcer; assay: antiulcer activity, reserpine ulcer; assay type: in vivo; settings: rat, os
# Source text: (§1) The antiulcer activity has been tested on the rat for different types of experimental ulcer. The obtained therefrom is in Table 2.
# [3] = tested on: Phenylbutazone + hystamine experimental ulcer; assay: antiulcer activity, phenylbutazone + hystamine ulcer; assay type: in vivo; settings: rat, os
# Source text: as §1
# gastric hyperacidity = assay: buffering activity (neutralizing action for gastric hyperacidity); assay type: in vivo; settings: rat, os
# [4] = tested on: Duodenal from cystamine experimental ulcer; assay: antiulcer activity, duodenal ulcer from cystamine; assay type: in vivo; settings: rat, i.d.
# Source text: as §1
# [5] = buffering effect, HCl titration in vitro; assay type: physicochemical; settings: 4.6 g sample in 400 ml 0.015 N HCl, 37° C., 0.1 N HCl at 1 ml/minute; minimum requirement
# Method: Buffering effect: to 4.6 g of the sample, in a 1000 ml beaker, 400 ml of 0.015 N HCl are added, while keeping the temperature at 37° C. (thermostat). The pH is measured after 30 minutes, while controlling that it be maintained within 4.8.div.5.0. Then, by means of a burette, 0.1 N HCl is introduced at a rate of 1 ml/minute, to achieve a pH of 3.0. 165 ml of 0.1N HCl must be consumed at the very least.
# [6] = tested on: Immobilization experimental ulcer; assay: antiulcer activity, immobilization ulcer; assay type: in vivo; settings: rat, os
# Source text: as §1
# mouse = assay: acute toxicity per os, mouse; assay type: in vivo; settings: fiduciary limits (6646.4-5862.2)
# Source text: (§2) The acute toxicity of the complex salt of dihydroxy-aluminum-gluconate of N-cyclohexyl-piperazino acetamide is checked by the usual pharmacotoxicologic testing on the rat and mouse per os, the results of which are given in the following table.
# [7] = tested on: From indomethacin experimental ulcer; assay: antiulcer activity, ulcer from indomethacin; assay type: in vivo; settings: rat, os
# Source text: as §1
# Shay experimental ulcer = assay: antiulcer activity, Shay ulcer; assay type: in vivo; settings: rat, i.d.
# Source text: as §1
# rat = assay: acute toxicity per os, rat; assay type: in vivo
# Source text: as §2
# antisecretive activity = assay type: in vivo; settings: rat, os
# Fast experimental ulcer = assay: antiulcer activity, fast ulcer; assay type: in vivo; settings: rat, os
# Source text: as §1
Molecule,antisecretive and antiulcer activity [1],ED50 (antiulcer) [2] [mg/kg],ED50 (antiulcer) [3] [mg/kg],ED50 (buffering activity) (gastric hyperacidity) [mg/kg],ED50 (antiulcer) [4] [mg/kg],0.1N HCl consumed to achieve a pH of 3.0 [5] [ml],ED50 (antiulcer) [6] [mg/kg],LD50 (mouse) [mg/kg],ED50 (antiulcer) [7] [mg/kg],ED50 (antiulcer) (Shay experimental ulcer) [mg/kg],"toxicity (rat; rat and mouse per os, overall statement)","LD50 (rat; rat, os, fiduciary limits (8447.4-5264.6)) [mg/kg]",ED50 (antisecretive activity) (antisecretive activity) [mg/kg],ED50 (antiulcer) (Fast experimental ulcer) [mg/kg]
CC1CCC(NC(=O)CN2CCNCC2)CC1 (stereo not drawn) [N-4-methyl-cyclohexyl-1-piperazinylacetamide],considerable,,,,,,,,,,,,,
O=C(CN1CCNCC1)NC1CCCCC1 [N-cyclohexyl-1-piperaziniylacetamide],considerable,,,,,,,,,,,,,
Dihydroxy-aluminate-gluconate of N- cyclohexyl-1-piperazino-acetamide,,480,150,156,270,≥ 165,420,6241.9,420,360,very low,6668.4,330,350
